Data on 3 compounds can be found in the NIST ThermoML archive (doi:10.1016/j.jct.2010.03.002).

± gives the expanded uncertainty stated by the source.

In general, viscosity refers to the internal friction of a fluid under shear. Usually mass density stands for mass per unit of volume.

For data set [1] the following is noted: 101 kPa, Liquid; for viscosity: Capillary tube (Ostwald / Ubbelohde) method; for mass density: Vibrating tube method.
Data set [2] can be described thus: xn = mol fraction of the nth substance listed. The conditions noted are these: 101 kPa, Liquid, x1 = 1; for viscosity: Capillary tube (Ostwald / Ubbelohde) method; for mass density: Vibrating tube method.

As to `CCCCCCn1cc[n+](C)c1.[Br-]` [3-hexyl-1-methyl-1H-imidazolium bromide], the viscosity was determined as 6936 ± 750 mPa·s in data set [1] (293.15 K); 2239 ± 200 mPa·s in data set [1] (303.15 K); 851.65 ± 56 mPa·s in data set [1] (313.15 K); 512.14 ± 27 mPa·s in data set [1] (323.15 K); 350.69 ± 16 mPa·s in data set [1] (333.15 K). The mass density in data set [1] (293.15 K) is given as 1227.4 ± 1.7 kg/m3; in data set [1] (303.15 K), 1220.1 ± 1.7 kg/m3; in data set [1] (313.15 K), 1213.3 ± 1.7 kg/m3; in data set [1] (323.15 K), 1205.7 ± 1.7 kg/m3; in data set [1] (333.15 K), 1198.6 ± 1.6 kg/m3.

For `O` [water], the viscosity came to 1.304 ± 0.012 mPa·s in data set [1] (293.15 K); 1.002 ± 0.01 mPa·s in data set [1] (303.15 K); 0.653 ± 0.007 mPa·s in data set [1] (313.15 K); 0.544 ± 0.005 mPa·s in data set [1] (323.15 K); 0.467 ± 0.005 mPa·s in data set [1] (333.15 K). Also, the mass density in data set [1] (323.15 K) is recorded as 988 ± 0.1 kg/m3; in data set [1] (333.15 K), 983.2 ± 0.1 kg/m3.

Turning to `O` [water] + CCCCCCn1cc[n+](C)c1.[Br-], the viscosity in data set [2] (293.15 K) was 1.304 ± 0.012 mPa·s; in data set [2] (303.15 K), 1.002 ± 0.01 mPa·s; in data set [2] (313.15 K) it was 0.653 ± 0.007 mPa·s; in data set [2] (323.15 K) it was 0.544 ± 0.005 mPa·s; in data set [2] (333.15 K) it was 0.467 ± 0.005 mPa·s. Besides, the mass density was 988 ± 0.1 kg/m3 in data set [2] (323.15 K) and 983.2 ± 0.1 kg/m3 in data set [2] (333.15 K).
